Ki data for 53 molecules are collected here from US9630956B2, “Compounds useful as inhibitors of ATR kinase” (Vertex Pharmaceuticals Incorporated, priority 2010, dated 2017).

The structures appear in SMILES notation.

full-length ATR, sequence (Q13535 whole entry): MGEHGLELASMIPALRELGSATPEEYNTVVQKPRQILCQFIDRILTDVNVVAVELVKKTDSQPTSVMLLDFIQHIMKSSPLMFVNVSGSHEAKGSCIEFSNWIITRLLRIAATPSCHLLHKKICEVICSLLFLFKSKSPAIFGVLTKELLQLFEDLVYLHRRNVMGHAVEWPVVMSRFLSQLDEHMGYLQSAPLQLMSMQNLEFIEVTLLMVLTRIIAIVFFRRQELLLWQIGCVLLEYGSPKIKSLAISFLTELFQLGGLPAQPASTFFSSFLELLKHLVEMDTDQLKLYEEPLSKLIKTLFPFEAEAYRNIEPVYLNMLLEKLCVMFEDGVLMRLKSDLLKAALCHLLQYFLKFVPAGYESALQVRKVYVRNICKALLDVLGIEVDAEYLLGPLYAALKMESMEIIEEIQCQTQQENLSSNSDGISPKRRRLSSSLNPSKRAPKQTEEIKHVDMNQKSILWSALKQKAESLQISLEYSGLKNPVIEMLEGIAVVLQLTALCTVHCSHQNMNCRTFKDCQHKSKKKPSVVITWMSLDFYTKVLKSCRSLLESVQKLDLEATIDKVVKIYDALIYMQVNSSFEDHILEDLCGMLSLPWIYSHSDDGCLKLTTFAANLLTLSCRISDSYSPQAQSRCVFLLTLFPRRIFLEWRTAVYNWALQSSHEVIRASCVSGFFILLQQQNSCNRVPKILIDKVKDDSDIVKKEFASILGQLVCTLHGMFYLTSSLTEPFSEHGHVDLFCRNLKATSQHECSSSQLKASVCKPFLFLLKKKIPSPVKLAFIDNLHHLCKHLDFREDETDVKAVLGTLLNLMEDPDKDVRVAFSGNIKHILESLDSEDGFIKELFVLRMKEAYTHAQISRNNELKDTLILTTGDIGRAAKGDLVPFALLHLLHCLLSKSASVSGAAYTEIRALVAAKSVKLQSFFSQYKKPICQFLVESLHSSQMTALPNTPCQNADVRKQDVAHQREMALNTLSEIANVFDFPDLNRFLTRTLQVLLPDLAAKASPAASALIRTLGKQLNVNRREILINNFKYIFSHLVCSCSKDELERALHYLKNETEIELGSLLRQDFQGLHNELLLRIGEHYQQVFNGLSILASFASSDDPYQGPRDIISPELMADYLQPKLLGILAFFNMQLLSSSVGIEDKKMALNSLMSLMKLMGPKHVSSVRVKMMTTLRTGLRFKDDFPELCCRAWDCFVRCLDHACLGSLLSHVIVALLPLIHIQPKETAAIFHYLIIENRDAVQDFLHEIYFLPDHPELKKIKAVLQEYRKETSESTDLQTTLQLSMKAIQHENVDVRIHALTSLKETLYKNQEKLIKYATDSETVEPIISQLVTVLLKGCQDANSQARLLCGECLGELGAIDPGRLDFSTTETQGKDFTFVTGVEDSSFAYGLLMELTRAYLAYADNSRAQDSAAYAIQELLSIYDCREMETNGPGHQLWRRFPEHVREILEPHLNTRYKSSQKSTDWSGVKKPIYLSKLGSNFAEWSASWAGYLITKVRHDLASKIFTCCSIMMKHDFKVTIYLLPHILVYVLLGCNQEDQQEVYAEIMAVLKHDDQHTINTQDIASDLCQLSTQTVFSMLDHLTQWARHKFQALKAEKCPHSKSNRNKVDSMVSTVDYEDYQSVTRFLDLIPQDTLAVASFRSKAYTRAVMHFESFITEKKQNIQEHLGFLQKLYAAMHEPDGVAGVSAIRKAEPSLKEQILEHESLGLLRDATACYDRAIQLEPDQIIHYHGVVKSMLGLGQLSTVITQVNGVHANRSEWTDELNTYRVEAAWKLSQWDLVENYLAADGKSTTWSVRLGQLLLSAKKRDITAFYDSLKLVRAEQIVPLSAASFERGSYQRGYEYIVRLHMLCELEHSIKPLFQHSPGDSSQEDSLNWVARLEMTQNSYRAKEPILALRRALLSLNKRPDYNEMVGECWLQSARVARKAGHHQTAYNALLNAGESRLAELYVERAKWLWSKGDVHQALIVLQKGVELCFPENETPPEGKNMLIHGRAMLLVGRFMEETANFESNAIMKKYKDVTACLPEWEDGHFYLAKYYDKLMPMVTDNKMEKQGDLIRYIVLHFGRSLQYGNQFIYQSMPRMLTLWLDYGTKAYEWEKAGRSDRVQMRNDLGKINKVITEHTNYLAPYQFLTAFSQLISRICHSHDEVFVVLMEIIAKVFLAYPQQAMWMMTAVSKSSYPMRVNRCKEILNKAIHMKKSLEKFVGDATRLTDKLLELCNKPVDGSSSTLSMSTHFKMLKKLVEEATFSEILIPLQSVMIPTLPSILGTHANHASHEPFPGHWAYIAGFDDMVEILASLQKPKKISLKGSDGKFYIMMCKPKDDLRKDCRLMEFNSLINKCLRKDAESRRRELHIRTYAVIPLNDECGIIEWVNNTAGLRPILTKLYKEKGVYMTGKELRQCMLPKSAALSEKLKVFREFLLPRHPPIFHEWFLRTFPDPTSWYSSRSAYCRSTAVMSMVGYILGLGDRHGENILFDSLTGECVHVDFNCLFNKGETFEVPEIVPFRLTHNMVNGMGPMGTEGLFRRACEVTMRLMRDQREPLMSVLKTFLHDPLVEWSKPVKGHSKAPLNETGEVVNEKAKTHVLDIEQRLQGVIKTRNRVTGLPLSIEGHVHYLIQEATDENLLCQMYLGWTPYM

One assay has as its target full-length ATR (Homo sapiens (Human), UniProt Q13535). The assay is described as follows: ATR Inhibition Assay (radioactive-phosphate incorporation). The class given is biochemical.
Conditions: not given
On the procedure: Compounds were screened for their ability to inhibit ATR kinase using a radioactive-phosphate incorporation assay. Assays were carried out in a mixture of 50 mM Tris/HCl (pH 7.5), 10 mM MgCl2 and 1 mM DTT. Final substrate concentrations were 10 μM [γ-33P]ATP (3 mCi 33P ATP/mmol ATP, Perkin Elmer) and 800 μM target peptide ([…]).
Assays were carried out at 25° C. in the presence of 5 nM full-length ATR. An assay stock buffer solution was prepared containing all of the reagents listed above, with the exception of ATP and the test compound of interest. 13.5 μL of the stock solution was placed in a 96 well plate followed by addition of 2 μL of DMSO stock containing serial dilutions of the test compound (typically starting from a final concentration of 15 μM with 3-fold serial dilutions) in duplicate (final DMSO concentration 7%). The plate was pre-incubated for 10 minutes at 25° C. and the reaction initiated by addition of 15 μL [γ-33P]ATP (final concentration 10 μM).
The reaction was stopped after 24 hours by the addition of 30 μL 0.1 M phosphoric acid containing 2 mM ATP. A multiscreen phosphocellulose filter 96-well plate (Millipore, Cat no. MAPHNOB50) was pretreated with 100 μL 0.2M phosphoric acid prior to the addition of 45 μL of the stopped assay mixture. The plate was washed with 5×200 μL 0.2M phosphoric acid. After drying, 100 μL Optiphase ‘SuperMix’ liquid scintillation cocktail (Perkin Elmer) was added to the well prior to scintillation counting (1450 Microbeta Liquid Scintillation Counter, Wallac).
After removing mean background values for all of the data points, Ki(app) data were calculated from non-linear regression analysis of the initial rate data using the Prism software package (GraphPad Prism version 3.0cx for Macintosh, GraphPad Software, San Diego Calif., USA).
Below is a chart showing the ATR Inhibition Ki values of compounds of the disclosure.
As to `CNCc1ccc(-c2nnc(-c3nc(-c4ccc(=O)n(CCOC)c4)cnc3N)o2)cc1` [Compound I-2], the Ki lay within 5 to 50 nM. Take `CNCc1ccc(-c2nnc(-c3nc(-c4ccc(=O)n(CCO)c4)cnc3N)o2)cc1` [Compound I-4]: the Ki was 5 to 50 nM. Still for that read-out and setting: in the case of `CNCc1ccc(-c2nnc(-c3nc(-c4ccc(=O)n(CCCN)c4)cnc3N)o2)cc1` [Compound I-5] it was 50 to 100 nM. Same read-out and setting: the same measure for `CNCc1ccc(-c2nnc(-c3nc(-c4ccc(=O)n(C5CCOC5)c4)cnc3N)o2)c(OC)c1` (centres unmarked) [Compound I-8]: 5 to 50 nM. `CNCc1ccc(-c2nnc(-c3nc(-c4ccc(=O)n(C5CCOC5)c4)cnc3N)o2)cc1` (centres unmarked) [Compound I-9]: the Ki is 5 to 50 nM. Same read-out and setting: the same measure for `CNCc1ccc(-c2nnc(-c3nc(-c4ccc(=O)n(CCN(C)C)c4)cnc3N)o2)c(C)c1` [Compound I-24, 5-[5-amino-6-[5-[2-methyl-4-(methylaminomethyl)phenyl]-1,3,4-oxadiazol-2-yl]pyrazin-2-yl]-1-(2-dimethylaminoethyl)pyridin-2-one]: 5 to 50 nM; for `CNCc1ccc(-c2nnc(-c3nc(-c4ccc(=O)n(C(C)C(=O)O)c4)cnc3N)o2)c(C)c1` (centres unmarked) [Compound I-38, 2-[5-[5-amino-6-[5-[2-methyl-4-(methylaminomethyl)phenyl]-1,3,4-oxadiazol-2-yl]pyrazin-2-yl]-2-oxo-1-pyridyl]propanoic acid]: 5 to 50 nM. Consider `CNCc1cccc(-c2nnc(-c3nc(-c4ccc(=O)n(C(C)C)c4)cnc3N)o2)c1` [Compound I-47, 5-[5-amino-6-[5-[3-(methylaminomethyl)phenyl]-1,3,4-oxadiazol-2-yl]pyrazin-2-yl]-1-isopropyl-pyridin-2-one], for which the Ki lay in the range of 5 to 50 nM.

Take `Nc1ncc(-c2ccc(=O)n(C3CCCC3)c2)nc1-c1cc(-c2ccc(CN3CCCC3)cc2)no1` [Compound I-51]: the Ki was in the range of 5 to 50 nM. Consider `CC(C)(CO)NCc1ccc(-c2cc(-c3nc(-c4ccc(=O)n(C5CCCC5)c4)cnc3N)on2)cc1` [Compound I-52], for which the Ki was in the range of 5 to 50 nM. Consider `CC(C)n1cc(-c2cnc(N)c(-c3cc(-c4ccc(CNc5ccccc5)cc4)no3)n2)ccc1=O` [Compound I-65], for which the Ki was in the range of 50 to 100 nM.

The assay is the same for the next values; noted with them: ATR Inhibition Ki(app); 10 μM ATP, 800 μM target peptide, 5 nM full-length ATR, 25° C.
Consider `CNCc1ccc(-c2nnc(-c3nc(-c4ccc(=O)n(C)c4)cnc3N)o2)cc1` [Compound I-1], for which the Ki was 5 to 50 nM. Same read-out and setting: the same measure for `CNCc1ccc(-c2nnc(-c3nc(-c4ccc(=O)n(CC#N)c4)cnc3N)o2)cc1` [Compound I-7]: 5 to 50 nM. For the molecule `CNCc1ccc(-c2nnc(-c3nc(-c4ccc(=O)n(C(C)C)c4)cnc3N)o2)c(F)c1` [Compound I-10], the Ki is no more than 5 nM. Consider `CNCc1ccc(-c2nnc(-c3nc(-c4ccc(=O)n(C(C)C)c4)cnc3N)o2)c(C)c1` [Compound I-12], for which the Ki is no more than 5 nM. With `Cc1cc(CN[C@H]2CCOC2)ccc1-c1nnc(-c2nc(-c3ccc(=O)n(C(C)C)c3)cnc2N)o1` [Compound I-13, 5-[5-amino-6-[5-[2-methyl-4-[[[(3S)-tetrahydrofuran-3-yl]amino]methyl]phenyl]-1,3,4-oxadiazol-2-yl]pyrazin-2-yl]-1-isopropyl-pyridin-2-one], the Ki was no more than 5 nM. Consider `CNCc1ccc(-c2nnc(-c3nc(-c4ccc(=O)n(C5CCCC5)c4)cnc3N)o2)c(C)c1` [Compound I-14], for which the Ki is no more than 5 nM. With `CNCc1ccc(-c2nnc(-c3nc(-c4ccc(=O)n(C(C)C#N)c4)cnc3N)o2)c(C)c1` (centres unmarked) [Compound I-16], the Ki is no more than 5 nM. For the molecule `CNCc1ccc(-c2nnc(-c3nc(-c4ccc(=O)n(C(C)COC)c4)cnc3N)o2)c(C)c1` (centres unmarked) [Compound I-17], the Ki was no more than 5 nM. On the same count and under the same terms, the same measure for `CNCc1ccc(-c2nnc(-c3nc(-c4ccc(=O)n(C(C)C5CC5)c4)cnc3N)o2)c(C)c1` (centres unmarked) [Compound I-18]: no more than 5 nM; for `CCn1cc(-c2cnc(N)c(-c3nnc(-c4ccc(CNC)cc4OC)o3)n2)ccc1=O` [Compound I-19]: no more than 5 nM; for `Cc1cc(CNC(C)C)ccc1-c1nnc(-c2nc(-c3ccc(=O)n(C(C)C)c3)cnc2N)o1` [Compound I-20]: no more than 5 nM. Still for that read-out and setting: in the case of `Cc1cc(CNC(C)(C)C)ccc1-c1nnc(-c2nc(-c3ccc(=O)n(C(C)C)c3)cnc2N)o1` [Compound I-21] it was no more than 5 nM; in that of `CC(C)n1cc(-c2cnc(N)c(-c3cc(-c4ccc(CN[C@H]5CCOC5)cc4)no3)n2)ccc1=O` [Compound I-23], no more than 5 nM. For the molecule `CCC(C)n1cc(-c2cnc(N)c(-c3nnc(-c4ccc(CNC)cc4OC)o3)n2)ccc1=O` (centres unmarked) [Compound I-25], the Ki is no more than 5 nM.

Consider `CNCc1ccc(-c2nnc(-c3nc(-c4ccc(=O)n(CC(C)C)c4)cnc3N)o2)c(OC)c1` [Compound I-26], for which the Ki is no more than 5 nM.

Turning to `CNCc1ccc(-c2nnc(-c3nc(-c4ccc(=O)n(CC(F)(F)F)c4)cnc3N)o2)c(C)c1` [Compound I-27], the Ki is no more than 5 nM. `CNCc1ccc(-c2nnc(-c3nc(-c4ccc(=O)n(CC(F)(F)F)c4)cnc3N)o2)c(OC)c1` [Compound I-28]: the Ki was no more than 5 nM.

For `CNCc1ccc(-c2cc(-c3nc(-c4ccc(=O)n(C(C)C)c4)cnc3N)on2)c(F)c1` [Compound I-29], the Ki is no more than 5 nM. For `CC#CC(C)n1cc(-c2cnc(N)c(-c3nnc(-c4ccc(CNC)cc4C)o3)n2)ccc1=O` (centres unmarked) [Compound I-30], the Ki was no more than 5 nM. Consider `CNCc1ccc(-c2nnc(-c3nc(-c4ccc(=O)n(C(C)CF)c4)cnc3N)o2)c(C)c1` (centres unmarked) [Compound I-31], for which the Ki lay within 5 to 50 nM. As for `CNCc1ccc(-c2nnc(-c3nc(-c4ccc(=O)n(C5CCC5)c4)cnc3N)o2)c(C)c1` [Compound I-33], the Ki was no more than 5 nM. Consider `CNCc1ccc(-c2nnc(-c3nc(-c4ccc(=O)n(C(C)C#N)c4)cnc3N)o2)c(OC)c1` (centres unmarked) [Compound I-34, 2-[5-[5-amino-6-[5-[2-methoxy-4-(methylaminomethyl)phenyl]-1,3,4-oxadiazol-2-yl]pyrazin-2-yl]-2-oxo-1-pyridyl]propanenitrile], for which the Ki is no more than 5 nM. Turning to `COc1cc(CNC(C)(C)C)ccc1-c1nnc(-c2nc(-c3ccc(=O)n(C(C)C)c3)cnc2N)o1` [Compound I-35], the Ki was no more than 5 nM. In the case of `CNCc1ccc(-c2nnc(-c3nc(-c4ccc(=O)n(C(C)CO)c4)cnc3N)o2)c(OC)c1` (centres unmarked) [Compound I-36], the Ki was no more than 5 nM. For the molecule `CC(C)n1cc(-c2cnc(N)c(-c3nnc(-c4ccc(CNC(C)(C)C)cc4C#N)o3)n2)ccc1=O` [Compound I-40], the Ki lay in the range of 5 to 50 nM.

As to `CNCc1ccc(-c2nnc(-c3nc(-c4ccc(=O)n(C(C)C(F)(F)F)c4)cnc3N)o2)c(OC)c1` (centres unmarked) [Compound I-41], the Ki was no more than 5 nM. The same measure, in the same setting: the same measure for `CC(N)c1ccc(-c2nnc(-c3nc(-c4ccc(=O)n(C(C)C)c4)cnc3N)o2)cc1` (centres unmarked) [Compound I-45]: 5 to 50 nM; for `CC(C)n1cc(-c2cnc(N)c(-c3nnc(-c4cccc(CNC(C)(C)C)c4)o3)n2)ccc1=O` [Compound I-46]: 50 to 100 nM. Consider `CNCc1ccc(-c2cc(-c3nc(-c4ccc(=O)n(C5CCCC5)c4)cnc3N)on2)c(F)c1` [Compound I-56], for which the Ki is no more than 5 nM.

As to `CC(C)n1cc(-c2cnc(N)c(-c3cc(-c4ccc(C(N)CF)cc4)no3)n2)ccc1=O` (centres unmarked) [Compound I-59], the Ki was 5 to 50 nM. Regarding `CNCc1ccc(-c2cc(-c3nc(-c4ccc(=O)n(C5CCOCC5)c4)cnc3N)on2)cc1` [Compound I-66], the Ki was no more than 5 nM. On the same count and under the same terms, the same measure for `C=Cc1cc(-c2cnc(N)c(-c3cc(-c4ccc(CNC)cc4)no3)n2)cn(C(C)C)c1=O` [Compound I-67]: 50 to 100 nM; for `CNCc1ccc(-c2cc(-c3nc(-c4ccc(=O)n(Cc5ccoc5)c4)cnc3N)on2)cc1` [Compound I-69]: no more than 5 nM. `CNCc1ccc(-c2cc(-c3nc(-c4ccc(=O)n(CCN5CCCC5=O)c4)cnc3N)on2)cc1` [Compound I-70]: the Ki is no more than 5 nM.

As for `CNCc1ccc(-c2cc(-c3nc(-c4cc(Br)c(=O)n(C(C)C)c4)cnc3N)on2)cc1` [Compound I-71], the Ki was 5 to 50 nM. Take `CCc1cc(-c2cnc(N)c(-c3cc(-c4ccc(CNC)cc4)no3)n2)cn(C(C)C)c1=O` [Compound I-75]: the Ki was 50 to 100 nM. Take `CNCc1ccc(-c2cc(-c3nc(-c4ccc(=O)[nH]c4)cnc3N)on2)cc1` [Compound I-76]: the Ki is 5 to 50 nM.

On to `CNCc1ccc(-c2cc(-c3nc(-c4ccc(=O)n(C(C)C5CC5)c4)cnc3N)on2)cc1` (centres unmarked) [Compound I-79], for which the Ki was no more than 5 nM. In the case of `CNCc1ccc(-c2cc(-c3nc(-c4ccc(=O)n(Cc5nccs5)c4)cnc3N)on2)cc1` [Compound I-84], the Ki was no more than 5 nM. On to `CNCc1ccc(-c2cc(-c3nc(-c4ccc(=O)n(Cc5nccn5C)c4)cnc3N)on2)cc1` [Compound I-85], for which the Ki is no more than 5 nM.

In the case of `CNCc1ccc(-c2cc(-c3nc(-c4ccc(=O)n(CC5CCCO5)c4)cnc3N)on2)cc1` (centres unmarked) [Compound I-86], the Ki was no more than 5 nM. With `CNCc1ccc(-c2cc(-c3nc(-c4c[nH]c(=O)c(CO)c4)cnc3N)on2)cc1` [Compound I-88], the Ki was no more than 5 nM.
